From patent US20170007615A1, “Antibacterial Compounds” (priority 2014, published 2017)
In brackets after ≈: the same amount, converted by molar mass. Where two headings read alike, the source gives them in different places.

Experiments:
[1] = test system: E. coli drug resistant clinical isolates; experiment: Antibacterial activity (MIC) against drug resistant clinical isolates, alone and with PMBN; format: cell-based; conditions: for MIC: Escherichia coli, read-out: MIC Compound alone
[2] = test system: P. aeruginosa drug resistant clinical isolates; experiment: as above; format: cell-based; conditions: for MIC: Pseudomonas aeruginosa, read-out: MIC Compound alone
[3] = test system: A. baumannii drug resistant clinical isolates; experiment: as above; format: cell-based; conditions: for MIC: Acinetobacter baumannii, read-out: MIC Compound alone
[4] = test system: E. cloaceae drug resistant clinical isolates; experiment: as above; format: cell-based; conditions: for MIC: read-out: MIC Compound alone
[5] = test system: S. aureus (ATCC 29213); experiment: Antibacterial activity (MIC), Gram-positive type strain; format: cell-based, Staphylococcus aureus; conditions: Staphylococcus aureus, ATCC29213; Table 13
[6] = test system: E. faecalis (ATCC 29212); experiment: as above; format: cell-based, Enteroccocus faecalis; conditions: Enterococcus faecalis, ATCC29212; Table 13
[7] = test system: H. influenzae (ATCC 49247); experiment: Antibacterial activity (MIC), Gram-negative type strain; format: cell-based, Haemophilus influenzae; conditions: Haemophilus influenzae, ATCC49247; Table 13
[8] = test system: N. gonorrheae (ATCC 49226); experiment: as above; format: cell-based, Neisseria gonorrhoeae; conditions: Neisseria gonorrhoeae, ATCC49226; Table 13
[9] = test system: E. coli (ATCC 25922)
[10] = test system: A. baumannii (ATCC 19606); conditions: Table 4
[11] = test system: P. aeruginosa (ATCC 27853); conditions: Table 5
[12] = test system: E. cloaceae (ATCC 13047); conditions: Table 6
[13] = test system: E. coli (ATCC 25922); experiment: microbe, parasite or virus in culture; conditions: Escherichia coli
[14] = test system: A. baumannii (ATCC 19606); experiment: microbe, parasite or virus in culture; conditions: Acinetobacter baumannii, ATCC19606, read-out: MIC Compound alone
[15] = test system: P. aeruginosa (ATCC 27853); experiment: microbe, parasite or virus in culture; conditions: Pseudomonas aeruginosa, ATCC27853, read-out: MIC Compound alone
[16] = test system: E. cloaceae (ATCC 13047); experiment: microbe, parasite or virus in culture; conditions: Enterobacter cloacae, ATCC13047, read-out: MIC Compound alone

## CCNC(=O)Nc1nc2cc(-c3cnc(NS(=O)(=O)C(C)(C)C)nc3)cc(-c3ccc(C)cn3)c2s1 [Compound A-13, 1-[5-[2-(tert-Butylsulfonylamino)pyrimidin-5-yl]-7-(5-methyl-2-pyridyl)-1,3-benzothiazol-2-yl]-3-ethyl-urea]
[1]; E. coli (BAA200)
  MIC of Compound (μg/ml) in the presence of PMBN (128 μg/ml): ≦0.008 μg/ml
[1]; E. coli (MMX 1312)
  MIC of Compound (μg/ml) in the presence of PMBN (128 μg/ml): ≦0.008 μg/ml
  MIC: 16 µg/mL (≈ 30.4 µM)
[1]; E. coli (MMX 2232)
  MIC of Compound (μg/ml) in the presence of PMBN (128 μg/ml): ≦0.008 μg/ml
  MIC: 16 µg/mL (≈ 30.4 µM)
[1]; E. coli (MMX 5743)
  MIC of Compound (μg/ml) in the presence of PMBN (128 μg/ml): ≦0.008 μg/ml
  MIC: 4 µg/mL (≈ 7.61 µM)
[1]; E. coli (MMX 5771)
  MIC of Compound (μg/ml) in the presence of PMBN (128 μg/ml): ≦0.12 μg/ml
  MIC: > 64 µg/mL
[1]; E. coli (MMX 6413)
  MIC of Compound (μg/ml) in the presence of PMBN (128 μg/ml): ≦0.12 μg/ml
  MIC: > 64 µg/mL
[1]; E. coli (NCTC11954)
  MIC of Compound (μg/ml) in the presence of PMBN (128 μg/ml): ≦0.008 μg/ml
[1]; E. coli (NCTC13351)
  MIC of Compound (μg/ml) in the presence of PMBN (128 μg/ml): ≦0.12 μg/ml
[1]; E. coli (NCTC13352)
  MIC of Compound (μg/ml) in the presence of PMBN (128 μg/ml): ≦0.008 μg/ml
[1]; E. coli (NCTC13353)
  MIC of Compound (μg/ml) in the presence of PMBN (128 μg/ml): ≦0.008 μg/ml
[1]; E. coli (NCTC13400)
  MIC of Compound (μg/ml) in the presence of PMBN (128 μg/ml): ≦0.008 μg/ml
[1]; E. coli (NCTC13441)
  MIC of Compound (μg/ml) in the presence of PMBN (128 μg/ml): ≦0.12 μg/ml
[1]; E. coli (NCTC13450)
  MIC of Compound (μg/ml) in the presence of PMBN (128 μg/ml): ≦0.12 μg/ml
[1]; E. coli (NCTC13461)
  MIC of Compound (μg/ml) in the presence of PMBN (128 μg/ml): ≦0.12 μg/ml
[1]; E. coli (NCTC13462)
  MIC of Compound (μg/ml) in the presence of PMBN (128 μg/ml): ≦0.008 μg/ml
[1]; E. coli (NCTC13463)
  MIC of Compound (μg/ml) in the presence of PMBN (128 μg/ml): ≦0.008 μg/ml
[1]; E. coli (NCTC13476)
  MIC of Compound (μg/ml) in the presence of PMBN (128 μg/ml): ≦0.12 μg/ml
[1]; BAA200, E. coli (BAA200)
  MIC: > 4 µg/mL
[1]; NCTC11954, E. coli (NCTC11954)
  MIC: 2 µg/mL (≈ 3.8 µM)
[1]; NCTC13351, E. coli (NCTC13351)
  MIC: > 64 µg/mL
[1]; NCTC13352, E. coli (NCTC13352)
  MIC: 4 µg/mL (≈ 7.61 µM)
[1]; NCTC13353, E. coli (NCTC13353)
  MIC: 1 µg/mL (≈ 1.9 µM)
[1]; NCTC13400, E. coli (NCTC13400)
  MIC: > 4 µg/mL
[1]; NCTC13441, E. coli (NCTC13441)
  MIC: > 64 µg/mL
[1]; NCTC13450, E. coli (NCTC13450)
  MIC: > 64 µg/mL
[1]; NCTC13461, E. coli (NCTC13461)
  MIC: > 64 µg/mL
[1]; NCTC13462, E. coli (NCTC13462)
  MIC: > 4 µg/mL
[1]; NCTC13463, E. coli (NCTC13463)
  MIC: 2 µg/mL (≈ 3.8 µM)
[1]; NCTC13476, E. coli (NCTC13476)
  MIC: 8 µg/mL (≈ 15.2 µM)
[2]; P. aeruginosa (MMX3007)
  MIC of Compound (μg/ml) in the presence of PMBN (128 μg/ml): 0.03 µg/mL
  MIC: > 16 µg/mL
[2]; P. aeruginosa (MMX3022)
  MIC of Compound (μg/ml) in the presence of PMBN (128 μg/ml): 0.03 µg/mL
  MIC: 8 µg/mL (≈ 15.2 µM)
[2]; P. aeruginosa (MMX3025)
  MIC of Compound (μg/ml) in the presence of PMBN (128 μg/ml): 0.03 µg/mL
  MIC: > 16 µg/mL
[2]; P. aeruginosa (MMX3026)
  MIC of Compound (μg/ml) in the presence of PMBN (128 μg/ml): ≦0.008 μg/ml
  MIC: > 16 µg/mL
[2]; P. aeruginosa (MMX4700)
  MIC of Compound (μg/ml) in the presence of PMBN (128 μg/ml): 0.12 µg/mL
  MIC: 16 µg/mL (≈ 30.4 µM)
[2]; P. aeruginosa (NCTC13437)
  MIC of Compound (μg/ml) in the presence of PMBN (128 μg/ml): 0.016 µg/mL
[2]; NCTC13437, P. aeruginosa (NCTC13437)
  MIC: 16 µg/mL (≈ 30.4 µM)
[3]; A. baumannii (MMX 2585)
  MIC of Compound (μg/ml) in the presence of PMBN (128 μg/ml): 0.12 µg/mL
  MIC: 4 µg/mL (≈ 7.61 µM)
[3]; A. baumannii (MMX 2598)
  MIC of Compound (μg/ml) in the presence of PMBN (128 μg/ml): 0.06 µg/mL
  MIC: 2 µg/mL (≈ 3.8 µM)
[3]; A. baumannii (MMX 2600)
  MIC of Compound (μg/ml) in the presence of PMBN (128 μg/ml): 0.06 µg/mL
  MIC: 2 µg/mL (≈ 3.8 µM)
[3]; A. baumannii (MMX 4405)
  MIC of Compound (μg/ml) in the presence of PMBN (128 μg/ml): 0.12 µg/mL
  MIC: 4 µg/mL (≈ 7.61 µM)
[3]; A. baumannii (MMX 4454)
  MIC of Compound (μg/ml) in the presence of PMBN (128 μg/ml): 0.12 µg/mL
  MIC: 1 µg/mL (≈ 1.9 µM)
[3]; A. baumannii (MMX 6331)
  MIC of Compound (μg/ml) in the presence of PMBN (128 μg/ml): 0.06 µg/mL
  MIC: 4 µg/mL (≈ 7.61 µM)
[3]; A. baumannii (NCTC13301)
  MIC of Compound (μg/ml) in the presence of PMBN (128 μg/ml): 0.12 µg/mL
[3]; A. baumannii (NCTC13302)
  MIC of Compound (μg/ml) in the presence of PMBN (128 μg/ml): 0.03 µg/mL
[3]; A. baumannii (NCTC13303)
  MIC of Compound (μg/ml) in the presence of PMBN (128 μg/ml): 0.06 µg/mL
[3]; A. baumannii (NCTC13304)
  MIC of Compound (μg/ml) in the presence of PMBN (128 μg/ml): 0.03 µg/mL
[3]; A. baumannii (NCTC13305)
  MIC of Compound (μg/ml) in the presence of PMBN (128 μg/ml): 0.12 µg/mL
[3]; A. baumannii (NCTC 13420)
  MIC of Compound (μg/ml) in the presence of PMBN (128 μg/ml): 0.03 µg/mL
[3]; A. baumannii (NCTC13421)
  MIC of Compound (μg/ml) in the presence of PMBN (128 μg/ml): 0.03 µg/mL
[3]; A. baumannii (NCTC13422)
  MIC of Compound (μg/ml) in the presence of PMBN (128 μg/ml): 0.03 µg/mL
[3]; A. baumannii (NCTC13424)
  MIC of Compound (μg/ml) in the presence of PMBN (128 μg/ml): 0.03 µg/mL
[3]; NCTC13301, A. baumannii (NCTC13301)
  MIC: 4 µg/mL (≈ 7.61 µM)
[3]; NCTC13302, A. baumannii (NCTC13302)
  MIC: 1 µg/mL (≈ 1.9 µM)
[3]; NCTC13303, A. baumannii (NCTC13303)
  MIC: 2 µg/mL (≈ 3.8 µM)
[3]; NCTC13304, A. baumannii (NCTC13304)
  MIC: 1 µg/mL (≈ 1.9 µM)
[3]; NCTC13305, A. baumannii (NCTC13305)
  MIC: 2 µg/mL (≈ 3.8 µM)
[3]; NCTC13420, A. baumannii (NCTC 13420)
  MIC: 1 µg/mL (≈ 1.9 µM)
[3]; NCTC13421, A. baumannii (NCTC13421)
  MIC: 2 µg/mL (≈ 3.8 µM)
[3]; NCTC13422, A. baumannii (NCTC13422)
  MIC: 4 µg/mL (≈ 7.61 µM)
[3]; NCTC13424, A. baumannii (NCTC13424)
  MIC: 1 µg/mL (≈ 1.9 µM)
[4]; E. cloaceae (MMX 6087)
  MIC of Compound (μg/ml) in the presence of PMBN (128 μg/ml): 0.25 µg/mL
  MIC: > 64 µg/mL
[4]; E. cloaceae (MMX 6093)
  MIC of Compound (μg/ml) in the presence of PMBN (128 μg/ml): 0.12 µg/mL
  MIC: 8 µg/mL (≈ 15.2 µM)
[4]; E. cloaceae (MMX 6095)
  MIC of Compound (μg/ml) in the presence of PMBN (128 μg/ml): 1 µg/mL
  MIC: > 64 µg/mL
[4]; E. cloaceae (MMX 6304)
  MIC of Compound (μg/ml) in the presence of PMBN (128 μg/ml): 0.25 µg/mL
  MIC: > 16 µg/mL
[5]
  MIC: ≤ 0.008 µg/mL
[6]
  MIC: ≤ 0.008 µg/mL
[7]
  MIC: 0.015 µg/mL (≈ 0.0285 µM)
[8]
  MIC: ≤ 0.008 µg/mL
[9]; Table 1, (b) No effect
  MIC of Compound (μg/ml) in the presence of PMBN (128 μg/ml): 0.008 µg/mL
[9]; Table 2, colistin sub-inhibitory
  MIC of Compound (μg/ml) in the presence of Colistin (1 μg/ml): 0.25 µg/mL
[9]; Table 3, PMB sub-inhibitory
  MIC of Compound (μg/ml) in the presence of PMB (0.5 μg/ml): 0.12 µg/mL
[10]
  MIC of Compound (μg/ml) in the presence of PMBN (128 μg/ml): 0.03 µg/mL
[11]
  MIC of Compound (μg/ml) in the presence of PMBN (128 μg/ml): <=0.008 μg/ml
[12]
  MIC of Compound (μg/ml) in the presence of PMBN (128 μg/ml): 0.25 µg/mL
[13]; ATCC25922, read-out: MIC Compound alone, Table 1
  MIC: 1 µg/mL (≈ 1.9 µM)
[13]; ATCC25922, read-out: MIC Compound alone, Table 2
  MIC: 1 µg/mL (≈ 1.9 µM)
[13]; ATCC25922, read-out: MIC Compound alone, Table 3
  MIC: 1 µg/mL (≈ 1.9 µM)
[14]
  MIC: 1 µg/mL (≈ 1.9 µM)
[15]
  MIC: 4 µg/mL (≈ 7.61 µM)
[16]
  MIC: > 64 µg/mL
